Experimental data as given in patent publication US20120058894A1, “SYNERGISTIC COMBINATIONS WHICH ARE COMPATIBLE WITH CULTIVATED PLANTS AND WHICH COMPRISE HERBICIDES SELECTED FROM THE GROUP CONSISTING OF BENZOYLCYCLOHEXANEDIONES FOR USE IN RICE CROPS” (Bayer CropScience AG, priority 2007, published 2012).

How the values were obtained:
Type in all cases: in vivo
[1] = tested on: ORYZA (Oryza sativa); test: Post-emergence greenhouse test, damage to cultivated plant rice; details: for Damage ORYZA: dosage 300 g a.i./ha
Description: (§1) Seeds or root pieces of harmful mono- and dicotyledonous plants are placed in sandy clay soil in pots, covered with earth and secured in a greenhouse under good growing conditions (temperature, air humidity, water supply). Approximately three weeks after sowing, the plants are treated at the 2- to 3-leaf stage with the herbicidal active substances or the combinations according to the invention. The combinations according to the invention formulated as wettable powders or as emulsion concentrates are sprayed, in spray application, on to the green plant parts in different dosages with a water application rate of 600 to 800 I/ha (corrected). Immediately up to a few days after application, the test receptacles accumulate water over the ground surface by up to 30 mm. With the water application (submerged application), on the other hand, the ground in the closed test receptacle is already covered with the paddy water up to 30 mm at the time of the application. The formulated active substances are here added directly to the paddy water. After an exposure time of the test plants in the greenhouse of an additional 3 to 4 weeks under optimum growing conditions, the effect of the preparations is evaluated visually in comparison with untreated controls. […] In this connection, actions of the combinations according to the invention which exceed the formal sum of the actions of the herbicides when applied individually are frequently observed. The values observed for the tests show, with suitable low dosages, an action of the combinations which lie above the expected values according to Colby.
(§2) When the combinations according to the invention are used, herbicidal actions on a harmful plant species which exceed the formal sum of the actions of the herbicides present when applied singly are frequently observed. Alternatively, it can in many cases be observed that a lower application rate for the herbicidal combination is needed in order to achieve, in comparison with the individual preparations, the same action with a harmful plant species. Such improvements in action or improvements in effectiveness or economies in application rate are a strong indication of a synergistic effect. If the observed activity values already exceed the formal sum of the values for the tests with individual applications, then they likewise exceed the expected value according to Colby, which is calculated according to the following formula and is likewise regarded as an indication of synergy (cf. S. R. Colby in Weeds, 15 (1967), pp. 20 to 22):
(§3) In this connection: • A, B=action of the component A or B in percent at a dosage of a or b grams ai/ha, • E=expected value in % at a dosage of a+b grams ai/ha.
(§4) The values observed for the test examples mentioned below are greater than (harmful plants) or lower than (cultivated plants) the expected values according to Colby.

[2] = tested on: BRAPL (Brachiaria platyphylla); test: Post-emergence weed action, greenhouse pot test
Description: as §1, §2, §3, §4

[3] = tested on: SCPSS (Scirpus juncoides); test: Post-emergence weed action, greenhouse pot test
Description: as §1, §2, §3, §4

[4] = tested on: LEFCH (Leptochloa chinensis); test: Post-emergence weed action, greenhouse pot test
Description: as §1, §2, §3, §4

[5] = tested on: ECHCG (Echinochloa crus galli); test: Post-emergence weed action, greenhouse pot test; details: Table 4, post-emergence, dosage 100 g a.i./ha
Description: as §1, §2, §3, §4

[6] = tested on: CYPES (Cyperus serotinus); test: Post-emergence weed action, greenhouse pot test; details: Table 4, post-emergence, dosage 100 g a.i./ha
Description: as §1, §2, §3, §4

[7] = Table 2, post-emergence, dosage 12.5 g a.i./ha
[8] = Table 5, post-emergence, dosage 62.5 g a.i./ha
[9] = Table 5, post-emergence, dosage 12.5 g a.i./ha
[10] = Table 3, post-emergence, dosage 6.25 g a.i./ha
[11] = Table 6, post-emergence, dosage 6.25 g a.i./ha

For `CS(=O)(=O)c1ccc(C(=O)C2C(=O)CCCC2=O)c(Cl)c1COCC(F)(F)F` [Compound A1, tembotrione], the “Action/Damage ORYZA” value ([1]; in vivo) was 10%, the “Action/Damage BRAPL” value [2, 7] was 20% and the “Action against SCPSS” value ([3]; Table 7, post-emergence, dosage 12.5 g a.i./ha) was 40%. For the same compound, the “Action against SCPSS” value ([3]; Table 8, post-emergence, dosage 12.5 g a.i./ha) was 40%, the “Action against SCPSS” value ([3]; Table 9, post-emergence, dosage 12.5 g a.i./ha) was 40% and the “Action against SCPSS” value ([3]; Table 10, post-emergence, dosage 12.5 g a.i./ha) was 40%.
In the case of `CS(=O)(=O)c1ccc(C(=O)C2C(=O)CCCC2=O)c(Cl)c1COCC1CCCO1` (stereo not shown) [Compound A2, tefuryltrione], the “Action/Damage ORYZA” value [1, 8] is reported as 10%, the “Action/Damage BRAPL” value [2, 8] is reported as 25% and the “Action against SCPSS” value ([3]; Table 7, post-emergence, dosage 37.5 g a.i./ha) is reported as 50%.
`CS(=O)(=O)c1ccc(C(=O)C2C(=O)CCCC2=O)c(Cl)c1` [Compound B1, sulcotrione] was tested, and the “Action/Damage ORYZA” value [1, 7] was 5%, the “Action/Damage ORYZA” value [1, 9] was 5% and the “Action/Damage BRAPL” value [2, 7] was 0%. The “Action/Damage BRAPL” value [2, 9] was 0%.
For `CCCCOC(=O)[C@@H](C)Oc1ccc(Oc2ccc(C#N)cc2F)cc1` [Compound B3, cyhalofop-butyl], the “Action/Damage ORYZA” value [1, 10] was 0%, the “Action/Damage ORYZA” value [1, 11] was 0% and the “Action/Damage BRAPL” value [2, 10] was 0%. For the same compound, the “Action/Damage LEFCH” value [4, 11] was 0%.
For `CS(=O)(=O)c1ccc(C(=O)C2=C(Sc3ccccc3)C3CCC(C3)C2=O)c(Cl)c1` (stereo not shown) [Compound B5, benzobicyclon], the “Action against SCPSS” value ([3]; Table 8, post-emergence, dosage 37.5 g a.i./ha) was 60%.
`Cc1ccc(S(=O)(=O)Oc2c(C(=O)c3ccc(Cl)cc3Cl)c(C)nn2C)cc1` [Compound B6, pyrazolynate] was tested, and the “Action against SCPSS” value ([3]; Table 9, post-emergence, dosage 250 g a.i./ha) was 30%.
For `CC(C)(NC(=O)C(Br)C(C)(C)C)c1ccccc1` (stereo not shown) [Compound B7, bromobutide], the “Action against SCPSS” value ([3]; Table 10, post-emergence, dosage 125 g a.i./ha) was 70%.
For `CCOC(=O)C1=NOC(c2ccccc2)(c2ccccc2)C1` [Compound C1, isoxadifen-ethyl], the “Damage ORYZA” value ([1]; Table 11, post-emergence) was 0%, the “Damage ORYZA” value ([1]; Table 12, post-emergence) was 0% and the “Wirkung gegen ECHCG” value [5] was 0%. The “Wirkung gegen CYPES” value [6] was 0% and the “Wirkung gegen LEFCH” value ([4]; Table 4, post-emergence, dosage 100 g a.i./ha) was 0%.
